This note sets out measurements from patent publication US8574563B2 (Bristol-Myers Squibb Company, priority 2006, dated 2013).

Broadly, the EC50 is the concentration that produces a half-maximal response.

One assay deals with HCV 1b-377-neo replicon cells. Put plainly: HCV replicon assay, HCV 1b-377-neo replicon cells (1b FRET). The settings on record: HCV 1b-377-neo replicon cells; HCV 1b genotype; read-out: EC50 range against HCV 1b (Table 2, Range). The format is cell-based, Hepatitis C virus genotype 1b. In a few lines: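 Compounds were tested in genotype 1b subgenomic replicon cells carrying a neomycin marker, alongside a matched replicon line with an NS5A Y2065H substitution that confers resistance to a reference NS5A inhibitor.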
Regarding `COC(=O)NC(C(=O)N1CCCC1c1nc(-c2ccc(-c3ccc(-c4cnc(C5CCCN5C(=O)CN5CCCC5)[nH]4)cc3)cc2)c[nH]1)c1ccccc1` [Example 58, methyl ((1R)-2-oxo-1-phenyl-2-((2S)-2-(5-(4′-(2-((2S)-1-(1-pyrrolidinylacetyl)-2-pyrrolidinyl)-1H-imidazol-5-yl)-4-biphenylyl)-1H-imidazol-2-yl)-1-pyrrolidinyl)ethyl)carbamate], the EC50 lay in the range of 0.001 to 0.999 nM.

Staying with this assay, now noted: Hepatitis C virus, HCV 1b-377-neo replicon cells; HCV 1b genotype; read-out: EC50 range against HCV 1b (Table 2, Range).
`COC(=O)N[C@@H](C(=O)N1CCC[C@H]1c1ncc(-c2ccc(-c3ccc(-c4cnc([C@@H]5CCCN5C(=O)[C@@H](OC(C)=O)c5ccccc5)[nH]4)cc3)cc2)[nH]1)c1ccccc1` [Example 84-83, (1S)-2-((2S)-2-(5-(4′-(2-((2S)-1-((2R)-2-((methoxycarbonyl)amino)-2-phenylacetyl)-2-pyrrolidinyl)-1H-imidazol-5-yl)-4-biphenylyl)-1H-imidazol-2-yl)-1-pyrrolidinyl)-2-oxo-1-phenylethyl acetate]: the concentration giving a half-maximal response (EC50) lay within 0.001 to 0.999 nM. Still for that read-out and setting: with `COC(=O)N[C@@H](C)C(=O)N1CCC[C@H]1c1ncc(-c2ccc(-c3ccc(-c4[nH]c([C@@H]5CCCN5C(=O)[C@H](C)NC(=O)OC)nc4C(F)(F)F)cc3)cc2)[nH]1` [Example J38, methyl ((1S)-2-((2S)-2-(5-(4′-(2-((2S)-1-(N-(methoxycarbonyl)-L-alanyl)-2-pyrrolidinyl)-4-(trifluoromethyl)-1H-imidazol-5-yl)-4-biphenylyl)-1H-imidazol-2-yl)-1-pyrrolidinyl)-1-methyl-2-oxoethyl)carbamate] the figure was 0.001 to 0.999 nM. Same read-out and setting: to `CO[C@H](C(=O)N1CCC[C@H]1c1ncc(-c2ccc(-c3ccc(-c4cnc([C@@H]5CCCN5C(=O)[C@@H](c5ccccc5)N5CCCCC5)[nH]4)cc3)cc2)[nH]1)c1ccccc1` [Example 107-20, 1-((1R)-2-((2S)-2-(5-(4′-(2-((2S)-1-((2S)-2-methoxy-2-phenylacetyl)-2-pyrrolidinyl)-1H-imidazol-5-yl)-4-biphenylyl)-1H-imidazol-2-yl)-1-pyrrolidinyl)-2-oxo-1-phenylethyl) piperidine] belongs 0.001 to 0.999 nM; to `CCN(CC)[C@@H](C(=O)N1CCC[C@H]1c1ncc(-c2ccc(-c3ccc(-c4cnc([C@@H]5CCCN5C(=O)[C@H](NC(=O)OC)c5ccccc5)[nH]4)c(F)c3)cc2)[nH]1)c1ccccc1` [Example D37, methyl ((1R)-2-((2S)-2-(5-(4′-(2-((2S)-1-((2R)-2-(diethylamino)-2-phenylacelyl)-2-pyrrolidinyl)-1H-imidazol-5-yl)-3-fluoro-4-biphenylyl)-1H-imidazol-2-yl)-1-pyrrolidinyl)-2-oxo-1-phenylethyl)carbamate], 0.001 to 0.999 nM; to `COC(=O)N[C@H](C(=O)N1CC[C@H](O)[C@H]1c1nc(-c2ccc(-c3ccc(-c4c[nH]c([C@@H]5CCCN5C(=O)[C@@H](NC(=O)OC)C(C)C)n4)cc3)cc2)c[nH]1)C(C)C` [OL-19, methyl ((1S)-1-(((2R,3S)-3-hydroxy-2-(4-(4′-(2-((2S)-1-((2S)-2-((methoxycarbonyl)amino)-3-methylbutanoyl)-2-pyrrolidinyl)-1H-imidazol-4-yl)-4-biphenylyl)-1H-imidazol-2-yl)-1-pyrrolidinyl)carbonyl)-2-methylpropyl)carbamate], 0.001 to 0.999 nM.

Turning to `O=C(N[C@@H](C(=O)N1CCC[C@H]1c1ncc(-c2ccc(-c3ccc(-c4cnc([C@@H]5CCCN5C(=O)[C@@H]5CCCO5)[nH]4)cc3)cc2)[nH]1)c1ccccc1)[C@H]1CCCO1` [Example 110, (2R)—N-((1R)-2-oxo-1-phenyl-2-((2S)-2-(5-(4′-(2-((2S)-1-((2S)-tetrahydro-2-furanylcarbonyl)-2-pyrrolidinyl)-1H-imidazol-5-yl)-4-biphenylyl)-1H-imidazol-2-yl)-1-pyrrolidinyl)ethyl)tetrahydro-2-furancarboxamide], the 50% effective concentration (EC50) was 0.001 to 0.999 nM.

For the compound `COC(=O)N[C@H](C(=O)N1CC2(CC2)C[C@H]1c1ncc(-c2ccc(-c3ccc(-c4cnc([C@@H]5CC6(CC6)CN5C(=O)[C@@H](NC(=O)OC)C(C)C)[nH]4)cc3)cc2)[nH]1)C(C)C` [Example M145], the EC50 is 0.001 to 0.999 nM. Still for that read-out and setting: with `CCCCN[C@@H](C(=O)N1CCC[C@H]1c1nc(-c2ccc(-c3ccc(-c4cnc([C@@H]5CCCN5C(=O)[C@H](NCCCC)c5ccccc5)[nH]4)cc3)cc2)c[nH]1)c1ccccc1` [Example F17, N-((1R)-2-((2S)-2-(4-(4′-(2-((2S)-1-((2R)-2-(butylamino)-2-phenylacetyl)-2-pyrrolidinyl)-1H-imidazol-5-yl)-4-biphenylyl)-1H-imidazol-2-yl)-1-pyrrolidinyl)-2-oxo-1-phenylethyl)-1-butanamine] the figure was 0.001 to 0.999 nM; with `COC(=O)N[C@@H](C(=O)N1CCC[C@H]1c1ncc(-c2ccc(-c3ccc(-c4cnc([C@@H]5CCCN5C(=O)CNC(C)=O)[nH]4)cc3)cc2)[nH]1)c1ccccc1` [Example 41, methyl ((1R)-2-((2S)-2-(5-(4′-(2-((2S)-1-(N-acetylglycyl)-2-pyrrolidinyl)-1H-imidazol-5-yl)-4-biphenylyl)-1H-imidazol-2-yl)-1-pyrrolidinyl)-2-oxo-1-phenylethyl)carbamate], 0.001 to 0.999 nM. The same measure, in the same setting: with `COC(=O)N[C@@H](C(=O)N1CCC[C@H]1c1ncc(-c2ccc(-c3ccc(-c4cnc([C@@H]5CCCN5C(=O)C(C)(C)c5ccc(Cl)cc5)[nH]4)cc3)cc2)[nH]1)c1ccccc1` [Example 84-79, methyl ((1R)-2-((2S)-2-(5-(4′-(2-((2S)-1-(2-(4-chlorophenyl)-2-methylpropanoyl)-2-pyrrolidinyl)-1H-imidazol-5-yl)-4-biphenylyl)-1H-imidazol-2-yl)-1-pyrrolidinyl)-2-oxo-1-phenylethyl)carbamate] the figure was 0.001 to 0.999 nM. The same measure, in the same setting: with `C[C@@H](C(=O)N1CCC[C@H]1c1ncc(-c2ccc(-c3ccc(-c4cnc([C@@H]5CCCN5C(=O)[C@@H](c5ccccc5)N5CCCC5)[nH]4)cc3)cc2)[nH]1)N(C)C` [Example 103, (2S)-N,N-dimethyl-1-oxo-1-((2S)-2-(5-(4′-(2-((2S)-1-((2R)-2-phenyl-2-(1-pyrrolidinyl)acetyl)-2-pyrrolidinyl)-1H-imidazol-5-yl)-4-biphenylyl)-1H-imidazol-2-yl)-1-pyrrolidinyl)-2-propanamine] the figure was 0.001 to 0.999 nM. As for `CCOC(=O)N[C@H](C(=O)N1CCC[C@H]1c1nc(-c2ccc(-c3ccc(-c4c[nH]c([C@@H]5CCCN5C(=O)[C@@H](NC(=O)OCC)C(C)C)n4)cc3)cc2)c[nH]1)C(C)C` [Example F25, ethyl ((1S)-1-(((2S)-2-(4-(4′-(2-((2S)-1-((2S)-2-((ethoxycarbonyl)amino)-3-methylbutanoyl)-2-pyrrolidinyl)-1H-imidazol-4-yl)-4-biphenylyl)-1H-imidazol-2-yl)-1-pyrrolidinyl)carbonyl)-2-methylpropyl)carbamate], the 50% effective concentration (EC50) lay in the range of 0.001 to 0.999 nM. Still for that read-out and setting: with `CCN(C)[C@@H](C(=O)N1CCC[C@H]1c1ncc(-c2ccc(-c3ccc(-c4cnc([C@@H]5CCCN5C(=O)[C@H](C)NC(=O)OC)[nH]4)cc3)cc2)[nH]1)c1ccccc1` [Example M99, methyl ((1S)-2-((2S)-2-(5-(4′-(2-((2S)-1-((2R)-2-(ethyl(methyl)amino)-2-phenylacetyl)-2-pyrrolidinyl)-1H-imidazol-5-yl)-4-biphenylyl)-1H-imidazol-2-yl)-1-pyrrolidinyl)-1-methyl-2-oxoethyl)carbamate] the figure was 1 to 99 nM.

Take `COC(=O)N[C@@H](C)C(=O)N1CCC[C@H]1c1ncc(-c2ccc(-c3ccc(-c4cnc([C@@H]5CCCN5C(=O)[C@H](Cc5c[nH]c6ccccc56)NC(=O)OC)[nH]4)cc3)cc2)[nH]1` [cj-102, methyl ((1S)-2-((2S)-2-(5-(4′-(2-((2S)-1-((2S)-3-(1H-indol-3-yl)-2-((methoxycarbonyl)amino)propanoyl)-2-pyrrolidinyl)-1H-imidazol-5-yl)-4-biphenylyl)-1H-imidazol-2-yl)-1-pyrrolidinyl)-1-methyl-2-oxoethyl)carbamate]: the half-maximal effective concentration (EC50) is 0.001 to 0.999 nM. With `COC(=O)N[C@@H](C(=O)N1CCC[C@H]1c1ncc(-c2ccc(-c3ccc(-c4cnc([C@@H]5CCCN5C(=O)c5cccnc5)[nH]4)cc3)cc2)[nH]1)c1ccccc1` [Example 68, methyl ((1R)-2-oxo-1-phenyl-2-((2S)-2-(5-(4′-(2-((2S)-1-(3-pyridinylcarbonyl)-2-pyrrolidinyl)-1H-imidazol-5-yl)-4-biphenylyl)-1H-imidazol-2-yl)-1-pyrrolidinyl)ethyl)carbamate], the EC50 is 0.001 to 0.999 nM. `CN(C)[C@@H](C(=O)N1C[C@@H](F)C[C@H]1c1ncc(-c2ccc(-c3ccc(-c4cnc([C@@H]5C[C@H](F)CN5C(=O)[C@@H](c5ccccc5)N(C)C)[nH]4)cc3)cc2)[nH]1)c1ccccc1` [Example 24-5]: the EC50 is 0.001 to 0.999 nM.

As to `COC(=O)N[C@@H](C(=O)N1CCC[C@H]1c1ncc(-c2ccc(-c3ncc(-c4cnc([C@@H]5CCCN5C(=O)Cc5cccnc5)[nH]4)cn3)cc2)[nH]1)c1ccccc1` [Example 152j-3, methyl ((1R)-2-oxo-1-phenyl-2-((2S)-2-(5-(4-(5-(2-((2S)-1-(3-pyridinylacetyl)-2-pyrrolidinyl)-1H-imidazol-5-yl)-2-pyrimidinyl)phenyl)-1H-imidazol-2-yl)-1-pyrrolidinyl)ethyl)carbamate], the concentration giving a half-maximal response (EC50) was 0.001 to 0.999 nM.

In the case of `COC(=O)N[C@@H](C(=O)N[C@@H](C)c1ncc(-c2ccc(-c3ccc(-c4cnc([C@@H]5CCCN5C(=O)[C@H](NC(=O)OC)c5ccccc5)[nH]4)nn3)cc2)[nH]1)c1ccccc1` [Example 152j-14, methyl ((1R)-2-((2S)-2-(5-(6-(4-(2-((1S)-1-(((2R)-2-((methoxycarbonyl)amino)-2-phenylacetyl)amino)ethyl)-1H-imidazol-5-yl)phenyl)-3-pyridazinyl)-1H-imidazol-2-yl)-1-pyrrolidinyl)-2-oxo-1-phenylethyl)carbamate], the concentration giving a half-maximal response (EC50) was in the range of 1 to 99 nM.
